Data from patent US8802662B2, “Anti-hepatitis C composition and method for preparing drug for inhibiting hepatitis C viruses or treating hepatitis C” (Industrial Technology Research Institute, priority 2009, dated 2014).
≈ marks a conversion by molar mass, not a printed value.

Assays:
[1] = tested on: HCV replicon (I389luc-ubi-NS3-3′/ET) in Huh-luc/neo-ET cell; experiment: HCV replication inhibition by firefly luciferase activity in Huh-luc/neo-ET cells (HCV replicon system); settings: for IC50 / IC90: Hepatitis C virus, Huh-luc/neo-ET, 48 h; for IC50: read-out: IC50: 50% of the HCV replication inhibition concentration, Huh-luc/neo-ET cells, luciferase activity, co-cultured 2 days; for IC90: read-out: IC90: 90% of the HCV replication inhibition concentration; for IC50: 50% of the HCV replication inhibition concentration: Huh-luc/neo-ET cells, luciferase activity, co-cultured 2 days; for EW (effect window, CC50/IC50): ratio of CC50 to IC50 in Huh-luc/neo-ET cells
From the text: The Huh-luc/neo-ET cell has I389luc-ubi-NS3-3′/ET replicon and could be used to monitor the replicative capability of the HCV. The Huh-luc/neo-ET is able to express a firefly luciferase-ubiquitin-neomycin fusion protein translated by the internal ribosomal entry site (IRES) of the hepatitis C virus and is able to express the hepatitis C viral nonstructural protein (NS3-5B) including protease, helicase and polymerase translated by the IRES of the encephalomyocarditis virus (EMCV). When the replication complex composed of the IRES of the hepatitis C virus or the nonstructural protein of the hepatitis C virus is influenced by a candidate, the effect of the candidate for inhibiting the activity of the hepatitis C virus repilcon can be estimated by determining the intensity of the firefly luciferase activity. The hepatitis C virus inhibition effect of the limonoid compound can be determined by determining the firefly luciferase activity expressed by the Huh-luc/noe-ET cell in presence of the limonoid compound.
5.96 g of chuanlianzi ethanol extract was dissolved in 20 ml of a mixture of methanol and water and extracted with 15 ml of n-hexane, diethyl ether, dichloromethane and ethyl acetate for 2-3 times, respectively to obtain an n-hexane layer extraction solution, diethyl ether layer extraction solution, dichloromethane layer extraction solution and ethyl acetate layer extraction solution, respectively. Each layer extraction solution was concentrated and dried to obtain an n-hexane layer extract, diethyl ether layer extract, dichloromethane layer extract and ethyl acetate layer extract, respectively. The hepatitis C inhibition activity of each layer extract was determined by using a Huh-luc/neo-ET cell (HCV replication system) for testing thereof.
The Huh-luc/neo-ET cells were co-cultured with toosendanin with concentrations of 0.15 μg/ml, 0.075 μg/ml, 0.038 μg/ml, 0.019 μg/ml and 0.0085 μg/ml, respectively for 2 days and then were washed twice by 100 μl of 1×PBS (1 mM KH2PO4, 10 mM Na2HPO4, 137 mM NaCl, 2.7 mM KCl) and PBS was removed. 35 μl of 1× passive lysis buffer (Promega, E1941) was added to the cells and vortexed by a vortexer for 10 minutes to thoroughly mix the cells.
Cell suspension with an amount of 30 μl/well was added to a 96 well white plate(NUNC, 236108) for measuring luciferase activity, and 40 μl/well of luminescence analysis buffer and 20 μl/well of luminescence substrate (1 mM D-Luciferin) were sequentially added into the 96 well white plates. After the substrate was added, a microplate luminescence meter (Berthold, MPL4) was used to measure the luciferase activity (Rlu/s).
The luciferase activity of the control group was used as a standard to calculate the hepatitis C virus inhibition rates (%) of the experiment groups. The formula of inhibition rates (%) was: {[(luciferase activity of control group)−(luciferase activity of experiment group)]/(luciferase activity of control group)}×100%. After the sample was serial diluted and the HCV replication inhibition rates were determined at different concentrations, 50% of the HCV replication inhibition concentration (IC50) was calculated by grafit5 software (Erithacus Software).
For each experiment, except for the PEG IFN alpha-2a with concentrations of 0.5 ng/ml and 0.1 ng/ml were used as positive controls for the IC50 test. Additionally, cyclosporine A (CsA) with a concentration of 1 μg/ml was also used as a positive control for the IC50 test.
The experiment procedure was the same as Example 2 while the testing sample was replaced with Trichilin H. The Huh-luc/neo-ET cells were co-cultured with Trichilin H with concentrations of 0.75 μg/ml, 0.5 μg/ml, 0.25 μg/ml and 0.125 μg/ml, respectively.

[2] = in vitro; type: cell-based; settings: human, Huh-luc/neo-ET cells, MTT, culturing for two days; read-out: CC50: 50% of the cell cytotoxic concentration
Method: (§1) Huh-luc/neo-ET cells with concentration of 2.5×10^4 cells/100 μl/well were seeded into a 96 well culture plate (Corning Incorporation COSTAR, 3599) and placed into a cell incubator for culturing.
(§2) The next day, a toosendanin sample was diluted with a DMEM culture medium to the concentrations of 28.73 μg/ml, 9.57 μg/ml, 3.19 μg/ml, 1.06 μg/ml, 0.35 μg/ml, 0.11 μg/ml, 0.039 μg/ml and 0.013 μg/ml, respectively, or to become the concentrations of 114.92 μg/ml, 38.33 μg/ml, 12.77 μg/ml, 4.25 μg/ml, 1.42 μg/ml, 0.46 μg/ml, 0.16 μg/ml and 0.057 μg/ml, respectively. The initial medium in the 96 well culture plate was sucked out by a vacuum pump (DOAT-704AA) without removing the cells. Then, the toosendanin culture medium with concentrations mentioned above were added into the 96 well culture plate containing cells with amount of 100 μl/well as experiment groups while untreated culture medium were added to the cells as a control group.
(§3) Then, PBS was removed and 50 μl of medium containing MTT (Sigma, M2128) with a concentration of 0.5 mg/ml was added into each well of the 96 well culture plate. After the 96 well culture plate was placed in a CO2 culture incubator for 1 hour, DMSO (Riedel-de Haën, 60153) with amount of 150 μl/well was added into the 96 well culture plate and vortexed by a votexer (KS shaker Type 670) to thoroughly mix the resulting purple precipitate. After the purple precipitate was thoroughly mixed, the 96 well culture plate was placed in a continuous wave length microwell plate analysis system (Molecular Devices, SPECTRAMAX 190) to measure the absorbance of cells at 560 nm.
(§4) The average absorbance of the control groups was used as 100% of the cell survival rates (%) to calculate the cell survival rates (%) of the experiment groups with different concentrations of toosendanin samples. The formula of the cell survival rate was: (absorbance of experiment group/absorbance of the control group)×100%. The cell survival rates of all experiment groups were drawn to form an x-y graph and thus a trend line formula with R^2 value greater than 0.9 was obtained.
(§5) In the trend line formula, when y was 50, the resulting X meant 50% of the cell cytotoxic concentration (CC50) or when y was 85, the resulting X meant 15% of the cell cytotoxic concentration (CC15). Due to the property of the sample, CC15 was calculated from the trend line formula generated by the experiment groups containing samples with concentrations of 3.19 μg/ml, 1.06 μg/ml, 0.35 μg/ml, 0.11 μg/ml and 0.039 μg/ml.
(§6) When the cell survival rates (%) was greater than 85%, it meant that the sample at or less than the concentration (the concentration less than CC15) was non-cytotoxic. […]

[3] = tested on: Huh-luc/neo-ET cells; experiment: in vitro; type: cell-based; settings: MTT, culturing for two days; for CC15: 15% of the cell cytotoxic concentration: from trend line formula (y = 85)
Method: as §1, §2, §3, §4, §5, §6

Row | SMILES | IC50 [1] | IC90 [1] | IC50: 50% of the HCV replication inhibition concentration [1] | CC50 [2] | CC15: 15% of the cell cytotoxic concentration [3] | EW (effect window, CC50/IC50) [1] | EW (effect window, CC50/IC50) ([1]; listed as toosendanin) | CC50: 50% of the cell cytotoxic concentration [3]
1 | CC(=O)OC1C(OC(C)=O)C2(C)C(OC(=O)C(C)C)OCC3(C1O)C2CC(O)C1(C)C3C(=O)C(OC(C)=O)C2(C)C(c3ccoc3)CC3OC321 (stereo not drawn) [Trichilin H] | < 0.5 mg/L | 0.9 mg/L (≈ 1.28 µM) | 0.48 ± 0.10 mg/L | > 50 mg/L | 0.7 mg/L |  |  | 
2 | CC(=O)O[C@@H]1C[C@H](O)[C@@]23CO[C@@H](O)[C@]1(C)[C@@H]2C[C@@H](O)[C@]1(C)[C@@H]3C(=O)[C@H](OC(C)=O)[C@@]2(C)[C@H](c3ccoc3)C[C@H]3O[C@]321 [Toosendanin, toosendanin] | < 0.05 mg/L | 0.35 mg/L (≈ 0.609 µM) | 0.045 ± 0.004 mg/L |  | 0.34 mg/L | >2531.6 | greater than 2500 | >114 mg/L
